Data on 36 compounds can be found in patent US7659277B2, “Ubiquitin ligase inhibitors and methods related thereto” (Proteologies, Ltd., priority 2003, dated 2010).

For assay [1], the target named is T1, POSH (Homo sapiens, UniProt Q7Z6J0).
T1 construct: GST-POSH lot NB81/p.118 3.6 mg/ml; fused on or other part: GST tag, used for detection with anti-GST XL665
T1 sequence (Q7Z6J0 1-269 limits assumed): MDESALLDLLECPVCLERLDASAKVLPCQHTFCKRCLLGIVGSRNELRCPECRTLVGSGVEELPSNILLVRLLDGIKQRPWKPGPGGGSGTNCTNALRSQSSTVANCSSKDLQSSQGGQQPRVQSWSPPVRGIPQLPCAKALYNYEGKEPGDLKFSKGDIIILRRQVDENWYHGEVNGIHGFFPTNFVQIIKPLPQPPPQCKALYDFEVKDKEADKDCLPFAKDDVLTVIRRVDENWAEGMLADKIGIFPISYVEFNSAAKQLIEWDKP
Kind of assay: Selectivity (% A in 1 μM), ubiquitin ligase activity of POSH. The assay is classed as biochemical. The conditions noted are these: read-out: Selectivity (% A* in 1 μM) POSH. On the procedure: Experimental Protocols: 1. HTS Screening Assay Procedure • Microplates 10109D to 10114D compounds at 1 mM. • (Controls in column 1). • All compounds were perchase from ChemBridge corporation: ChemBridge corporation 16981 Via Tazon, Suite G San Diego, Calif. 92127 a. Microplates Labeling • Put labels to 6 PS U-bottom clear microplate. • Put labels to 18 black microplates (triplicats). b. Microplates Preparation • Put 100 μl GST-POSH at 33 nM in wells of the clear PS U-bottom microplates (exept wells A1-D1). • Negative control: place 100 μl dH2O in wells A1-D1. • (Positive control: place 100 μl GST-POSH at 33 nM in wells E1-H1). • Put 8 μl enzymes solution ×4 to black microplates (column 1 to 11). c. Incubation of E3 with Compounds • Transfer 5 μl of compounds (at 1 mM) to the microplates containing 100 μl GST-POSH. • Add 5 μl of DMSO to controls column 1. • Incubation 30 minutes at RT. d. […] 2. […] Microplates Labeling • Put labels to 4 clear PP clear microplate (18.2 μM, 9.1 uM, 1.82 uM, 910 nM,). • Put labels to 5 clear PS U-bottom clear microplate 4.44 μM, 909, 444, 91 and 44 nM) • Put labels to 15 black microplates (triplicates). f. Original Microplate Dilutions • Put DMSO 40 μl to (18.2 μM, 1.82 uM plates) and 20 ul to (9.1 uM, 910 nM plates. • Mix by pipetation the original microplate (3× up and down 45 μl). • Transfer 10 μl of compounds from the original microplate (at 91 μM) to the next microplate (=18.2 μM) on splitting apparatus. • Mix by pipetation the 18.2 uM microplate (3× up and down 45 μl). • Transfer 20 μl of compounds from the 18.2 uM microplate to the next microplate (=9.1 μM) on splitting apparatus. • Mix by pipetation the 9.1 uM microplate (3× up and down 45 μl). • Transfer 10 μl of compounds from the 9.1 uM microplate to the next microplate (=1.82 μM) on splitting apparatus. • Mix by pipetation the 1.82 uM microplate (3× up and down 45 μl). • Transfer 20 μl of compounds from the 1.82 uM microplate to the next microplate (=910 nM) on splitting apparatus • Mix by pipetation. g. Microplates Preparation • Put 123 μl GST-POSH at 33 nM in wells of the 5 clear PS U-bottom clear microplates. • Positive control: place 123 μl GST-POSH at 33 nM in well A12-h12 13 μl DMSO. • Negative control: place 123 μl dH2O in well B1 and 13 μl DMSO. • Put 8 μl enzymes solution ×4 to 15 black microplates. • Controls: put 8 μl enzymes solution ×4 to wells A1 to F1. h. Incubation of POSH with Compounds • Take 7 μl of compounds at original plate (91 μM) and put into the 4.44 μM labeled microplate containing 123 μl GST-POSH, on splitting apparatus. • Mix by pipetation (3× up and down 115 μl), note time. • Take 7 μl of compounds at 18.2 μM and put into the 910 nM labeled microplate containing 123 μl GST-POSH, on splitting apparatus. • Mix by pipetation (3× up and down 115 μl), note time. • Take 7 μl of compounds at 9.1 μM and put into the 444 nM labeled microplate containing 123 μl GST-POSH, on splitting apparatus. • Mix by pipetation (3× up and down 115 μl), note time. • Take 7 μl of compounds at […] and put into the 91 nM labeled microplate containing 123 μl GST-POSH, on splitting apparatus. • Mix by pipetation (3× up and down 115 μl), note time. • Take 7 μl of compounds at 91.0 nM and put into the 44 nM labeled microplate containing 123 μl GST-POSH, on splitting apparatus. • Mix by pipetation (3× up and down 115 μl), note time. • Incubation 30 minutes at RT. i.

Assay [2] deals with Hmdm2 (Homo sapiens, UniProt Q00987). Kind of assay: Selectivity (% A in 1 μM), ubiquitin ligase activity of Hmdm2. The assay is classed as biochemical. The conditions noted are these: read-out: Selectivity (% A* in 1 μM) Hmdm2.
Setting [3] is: % activity at 1 μM compound, control is related to 100% activity, HTS protocol.

Read-outs that look alike come from different tables or passages of the source.

Hmdm2, sequence (Q00987 whole entry): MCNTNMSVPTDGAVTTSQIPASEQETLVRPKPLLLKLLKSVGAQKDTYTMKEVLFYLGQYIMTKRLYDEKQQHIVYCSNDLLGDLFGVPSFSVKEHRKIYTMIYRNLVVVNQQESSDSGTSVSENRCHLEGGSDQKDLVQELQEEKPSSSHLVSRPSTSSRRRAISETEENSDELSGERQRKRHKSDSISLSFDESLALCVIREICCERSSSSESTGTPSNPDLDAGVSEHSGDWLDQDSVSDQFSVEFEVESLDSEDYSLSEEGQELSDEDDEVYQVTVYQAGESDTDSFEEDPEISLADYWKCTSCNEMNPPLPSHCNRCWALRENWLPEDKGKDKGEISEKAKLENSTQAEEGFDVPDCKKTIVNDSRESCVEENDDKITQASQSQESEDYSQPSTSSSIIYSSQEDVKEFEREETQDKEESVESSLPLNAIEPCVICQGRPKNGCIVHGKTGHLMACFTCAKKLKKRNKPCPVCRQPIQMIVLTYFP

In the case of `Oc1c(Br)cc(Br)cc1/C=N/c1ccc(Br)cn1` [Compound 61], the remaining activity at 1 µM in assay [1] (setting [3]) stood at 35%; in assay [2] (setting [3]), 131%.

Regarding `CN1C(=O)/C(=C\c2ccc(-c3cccc([N+](=O)[O-])c3)o2)SC1=S` [Compound 115], the remaining activity at 1 µM in assay [1] came to 8%; in assay [2], 108%.

Turning to `O=c1nc(C(F)(F)F)cc(/C=C/c2ccc(-c3ccc(Br)cc3)o2)[nH]1` [Compound 39], the remaining activity at 1 µM was 29% in assay [1] (setting [3]) and 108% in assay [2] (setting [3]).

Consider `Cc1c(C(=O)/C=C/c2cccs2)c2cc(O)ccc2n1C` [Compound 76], for which the remaining activity at 1 µM in assay [1] stood at 35%; in assay [2], 110%.

For `O=[N+]([O-])c1ccc2c(c1)Cc1cc(/N=C/c3ccc(Br)cc3)ccc1-2` [Compound 67], the figures for the remaining activity at 1 µM in assay [1] (setting [3]) and in assay [2] (setting [3]) were 103% and 104%, respectively.

With `O=C1NC(=O)/C(=C\c2ccc(-c3ccc(F)cc3)o2)S1` [Compound 108], the values for the remaining activity at 1 µM in assay [1] (setting [3]) and in assay [2] (setting [3]) were 42% and 108%, respectively.

Regarding `Cc1cc([N+](=O)[O-])ccc1/N=C/c1ccc[nH]1` [Compound 70], the remaining activity at 1 µM was determined as 151% in assay [1] and 125% in assay [2].

Turning to `O=C1N=C(c2ccccc2)S/C1=C/c1ccc2ccccc2c1` [Compound 41], the remaining activity at 1 µM in assay [1] (setting [3]) turned out to be 17%; in assay [2] (setting [3]), 106%.

Turning to `O=C1NC(=S)N(c2ccccc2)C(=O)/C1=C\c1c(Cl)cccc1Cl` [Compound 6], the remaining activity at 1 µM turned out to be 14% in assay [1] (setting [3]) and 129% in assay [2] (setting [3]).

For `CN(C)c1ccc(/C=C2\C(=O)N(c3ccc([N+](=O)[O-])cc3)N=C2N2CCOCC2)cc1` [Compound 42], the remaining activity at 1 µM in assay [1] was 138%; in assay [2] it was 111%.

`Oc1c(Br)cc(Cl)cc1/C=N/c1ccccn1` [Compound 64]: the remaining activity at 1 µM is 63% in assay [1] (setting [3]) and 115% in assay [2] (setting [3]).

On to `O=C1N=C(c2ccccc2)S/C1=C/c1ccc(-c2cccc([N+](=O)[O-])c2)o1` [Compound 36], for which the figures for the remaining activity at 1 µM in assay [1] (setting [3]) and in assay [2] (setting [3]) were 6% and 71%, respectively.

For the compound `CCOC(=O)c1c(/N=C/c2cc(Br)ccc2O)sc2c1CCCC2` [Compound 68], the remaining activity at 1 µM in assay [1] (setting [3]) stood at 72%; in assay [2] (setting [3]), 110%.

As to `CCCCOc1ccc(NC(=S)N2CCn3c4c(c(=O)c5cc(C)ccc53)CCC42)cc1` (stereo not drawn) [Compound 81], the remaining activity at 1 µM in assay [1] was determined as 3%; in assay [2] it was 73%.

Consider `O=C1CC(NNc2ccccc2)C(=O)N1c1cccc(Cl)c1` (stereo not drawn) [Compound 22], for which the remaining activity at 1 µM worked out at 26% in assay [1] (setting [3]) and 102% in assay [2] (setting [3]).

Turning to `OCc1cccc(/N=C/c2cccc(O)c2O)c1` [Compound 57], the results for the remaining activity at 1 µM in assay [1] and in assay [2] were 20% and 80%, respectively.

As for `O=c1/c(=C/c2cccc([N+](=O)[O-])c2O)sc2nc3ccccc3n12` [Compound 51], the remaining activity at 1 µM in assay [1] (setting [3]) turned out to be 51%; in assay [2] (setting [3]), 80%.

For the compound `COc1ccc(NC(=O)c2cc3cccc(N)c3cc2O)cc1` [Compound 114], the remaining activity at 1 µM in assay [1] stood at 31%; in assay [2] it was 85%.

`Oc1c(Br)cc(Br)cc1/C=N/c1cccc2nsnc12` [Compound 112]: the results for the remaining activity at 1 µM in assay [1] (setting [3]) and in assay [2] (setting [3]) were 27% and 113%, respectively.

Take `O=c1oc2cc(O)ccc2cc1-c1csc(-c2ccc(Cl)cc2)n1` [Compound 40]: the remaining activity at 1 µM turned out to be 24% in assay [1] (setting [3]) and 159% in assay [2] (setting [3]).

Take `N=C1NC(=O)/C(=C\c2ccc(-c3ccc(I)cc3)o2)S1` [Compound 29]: the remaining activity at 1 µM in assay [1] was 42%; in assay [2], 104%.

Regarding `COc1ccc(/C=C2\C(=O)NC(=S)N(c3ccccc3)C2=O)cc1` [Compound 11], the remaining activity at 1 µM worked out at 21% in assay [1] (setting [3]) and 95% in assay [2] (setting [3]).

For `COc1ccc(CC(C)NCc2ccccc2Cl)cc1` (stereo not drawn) [Compound 107], the values for the remaining activity at 1 µM in assay [1] (setting [3]) and in assay [2] (setting [3]) were 68% and 113%, respectively.

`Cc1ccc2nsnc2c1/N=C/c1c(O)ccc2ccccc12` [Compound 53]: the remaining activity at 1 µM in assay [1] was found to be 12%; in assay [2], 125%.

With `N/N=C\c1ccc(-c2cccs2)s1` [Compound 37], the remaining activity at 1 µM in assay [1] (setting [3]) is 41%; in assay [2] (setting [3]) it was 107%.

For `COc1ccc(N2C(=O)NC(=O)/C(=C\C=C\c3ccccc3)C2=O)cc1` [Compound 8], the figures for the remaining activity at 1 µM in assay [1] and in assay [2] were 9% and 78%, respectively.

Take `COc1cc(N/C=C2/C(=O)NC(=S)N(c3ccc(F)cc3)C2=O)cc(OC)c1` [Compound 17]: the results for the remaining activity at 1 µM in assay [1] (setting [3]) and in assay [2] (setting [3]) were 71% and 106%, respectively.

With `O=[N+]([O-])c1ccc(CN2CCN(c3cccc(Cl)c3)CC2)o1` [Compound 80], the remaining activity at 1 µM turned out to be 50% in assay [1] and 95% in assay [2].

For `CC(C)(C)c1ccc(O)c(/N=C/C=C/c2cccc([N+](=O)[O-])c2)c1` [Compound 59], the remaining activity at 1 µM in assay [1] was determined as 26%; in assay [2], 112%.

Take `C=CCN1C(=O)NC(=O)/C(=C\c2ccccc2)C1=O` [Compound 2]: the figures for the remaining activity at 1 µM in assay [1] and in assay [2] were 50% and 108%, respectively.

On to `O=c1/c(=C/c2ccc(N3CCOCC3)cc2)sc2nc3ccccc3n12` [Compound 32], for which the remaining activity at 1 µM in assay [1] worked out at 66%; in assay [2] it was 141%.

As to `O=C1C=CC(=O)N1c1ccccc1Cl` [Compound 18], the remaining activity at 1 µM in assay [1] turned out to be 24%; in assay [2], 101%.

For `Oc1c(Cl)cc(Cl)cc1/C=N/c1ccc(-c2nc3ccccc3[nH]2)cc1` [Compound 63], the remaining activity at 1 µM was 30% in assay [1] (setting [3]) and 102% in assay [2] (setting [3]).

Regarding `O=C1NC(=O)C(=Cc2ccc(-c3cc(Cl)ccc3Cl)o2)C(=O)N1` [Compound 1], the remaining activity at 1 µM worked out at 19% in assay [1] and 105% in assay [2].

`CC(=C\c1ccccc1)/C=C1/SC(=N)NC1=O` [Compound 31]: the remaining activity at 1 µM stood at 105% in assay [1] (setting [3]) and 102% in assay [2] (setting [3]).

Consider `Cc1ccc(/N=C/c2cc(Br)cc(Br)c2O)c(C)c1` [Compound 54], for which the figures for the remaining activity at 1 µM in assay [1] and in assay [2] were 30% and 124%, respectively.
